The values below are quoted from earlier work in patent US20110053979A1, “PYRIDINE DERIVATIVES USED TO TREAT OREXIN RELATED DISORDERS” (priority 2008, published 2011).

The subject of data set [1] is rats.
Data set [2] deals with rats. This is another data set of the same source.
For data set [3], the system named is rats. The note with it: central administration at the onset of the normal sleep period, rat.
For the next data set, the system named is freely-feeding rats. Conditions: central administration, 4 hour time period.

As for `Cc1nc2ccc(NC(=O)Nc3ccnc4cccnc34)cc2o1` [SB334867], the “effect on hedonic eating” value with rats [1] is “potently reduced hedonic eating”. In addition, the “effect on high-fat pellet self-administration” value in the data set on rats [2] is listed as “attenuated high-fat pellet self-administration”.

Regarding “orexin-A: polypeptide ligand for the orexin-1 receptor; an agonist of the orexin receptors (QPLPDCCRQKTCSCRLYELLHGAGNHAAGILTL; Orexin-A; UniProt O43612 34-66, looked up)”, in the data set with rats [3], the effect on arousal result is “dose-related increase in arousal”. Further, the “increase of food intake over control rats receiving vehicle” value in the data set with freely-feeding rats is recorded as “approximately four-fold”.
